# Experimental data reported in ChEMBL document CHEMBL4613209, “Quinolone hybrids and their anti-cancer activities: An overview” (Eur J Med Chem, 2019).
# Columns and labels:
# Type in all cases: functional, cell-based
# L1210 = test: Cytotoxicity against mouse L1210 cells assessed as reduction in cell viability
# CHO = test: Cytotoxicity against CHO cells assessed as reduction in cell viability; conditions: Cricetulus griseus
# HL-60 = test: Cytotoxicity against human HL60 cells assessed as reduction in cell viability
# EJ = test: Cytotoxicity against human EJ cells assessed as reduction in cell viability by MTT assay
# SW480 = test: Cytotoxicity against human SW480 cells assessed as reduction in cell viability by MTT assay
# MCF7 = test: Cytotoxicity against human MCF7 cells assessed as reduction in cell viability by MTT assay
# SK-MEL3 = test: Cytotoxicity against human SK-MEL-3 cells assessed as reduction in cell viability by MTT assay
# A-431 = test: Cytotoxicity against human A431 cells assessed as reduction in cell viability by MTT assay
SMILES,IC50 (L1210) [µM],IC50 (CHO) [µM],IC50 (HL-60) [µM],IC50 (EJ) [µM],IC50 (SW480) [µM],IC50 (MCF7) [µM],IC50 (SK-MEL3) [µM],IC50 (A-431) [µM]
CCN1CCN(c2cc3c(cc2F)c(=O)c(-c2nn4c(-c5cn(C6CC6)c6cc(N7CCN(CC)CC7)c(F)cc6c5=O)nnc4s2)cn3C2CC2)CC1,0.12 to 5.2,0.12 to 5.2,0.12 to 5.2,–,–,–,–,–
CCn1cc(C(=O)O)c(=O)c2cc(F)c(N3CCNCC3)nc21 [ENOXACIN],–,–,–,137 to 238,137 to 238,137 to 238,137 to 238,137 to 238
O=c1c(-c2nnc(-c3cn(C4CC4)c4cc(N5CCNCC5)c(F)cc4c3=O)o2)cn(C2CC2)c2cc(N3CCNCC3)c(F)cc12,0.26 to 14.5,0.26 to 14.5,0.26 to 14.5,–,–,–,–,–
CCn1cc(C(=O)O)c(=O)c2cc(F)c(N3CCN(CC(=O)c4cccs4)CC3)cc21,–,–,–,2 to 131,2 to 131,2 to 131,2 to 131,2 to 131
O=C(O)c1cn(C2CC2)c2cc(N3CCN(C/C(=N/OCc4ccccc4)c4cccs4)CC3)c(F)cc2c1=O,–,–,–,2 to 131,2 to 131,2 to 131,2 to 131,2 to 131
CCn1cc(C(=O)O)c(=O)c2cc(F)c(N3CCN(C/C(=N/OCc4ccccc4)c4ccc(Cl)s4)CC3)cc21,–,–,–,≤ 20,≤ 20,≤ 20,≤ 20,≤ 20
O=c1c(-c2nn3c(-c4cn(C5CC5)c5cc(N6CCNCC6)c(F)cc5c4=O)nnc3s2)cn(C2CC2)c2cc(N3CCNCC3)c(F)cc12,0.12 to 5.2,0.12 to 5.2,0.12 to 5.2,–,–,–,–,–
C[C@H]1COc2c(N3CCN(C)CC3)c(F)cc3c(=O)c(-c4nnc(-c5cn(C6CC6)c6cc(N7CCN(C)CC7)c(F)cc6c5=O)o4)cn1c23,0.26 to 14.5,0.26 to 14.5,0.26 to 14.5,–,–,–,–,–
C[C@H]1COc2c(N3CCN(C)CC3)c(F)cc3c(=O)c(-c4nn5c(-c6cn(C7CC7)c7cc(N8CCNCC8)c(F)cc7c6=O)nnc5s4)cn1c23,0.12 to 5.2,0.12 to 5.2,0.12 to 5.2,–,–,–,–,–
CCn1cc(C(=O)O)c(=O)c2cc(F)c(N3CCN(C/C(=N/OCc4ccccc4)c4ccc(Cl)s4)CC3)nc21,–,–,–,≤ 20,≤ 20,≤ 20,≤ 20,≤ 20
Cc1ccc(/C=N/NC(=O)c2cn(C3CC3)c3cc(N/N=C/c4ccc(C)cc4)c(F)cc3c2=O)cc1,1.5 to 23.5,1.5 to 23.5,1.5 to 23.5,–,–,–,–,–
CCn1cc(C(=O)O)c(=O)c2cc(F)c(N3CCN(C/C(=N/O)c4ccc(Cl)s4)CC3)cc21,–,–,–,≤ 20,≤ 20,≤ 20,≤ 20,≤ 20
O=C(CN1CCN(c2cc3c(cc2F)c(=O)c(C(=O)O)cn3C2CC2)CC1)c1cccs1,–,–,–,2 to 131,2 to 131,2 to 131,2 to 131,2 to 131
CCN1CCN(c2cc3c(cc2F)c(=O)c(-c2nnc4sc(-c5cn(CC)c6cc(N7CCNCC7)c(F)cc6c5=O)nn24)cn3C2CC2)CC1,0.12 to 5.2,0.12 to 5.2,0.12 to 5.2,–,–,–,–,–
COc1ccccc1/C=N/NC(=O)c1cn(C2CC2)c2cc(N/N=C/c3ccccc3OC)c(F)cc2c1=O,1.5 to 23.5,1.5 to 23.5,1.5 to 23.5,–,–,–,–,–
CCN1CCN(c2cc3c(cc2F)c(=O)c(-c2nnc(-c4cn(C5CC5)c5cc(N6CCNCC6)c(F)cc5c4=O)o2)cn3C2CC2)CC1,0.26 to 14.5,0.26 to 14.5,0.26 to 14.5,–,–,–,–,–
CO/N=C(/CN1CCN(c2cc3c(cc2F)c(=O)c(C(=O)O)cn3C2CC2)CC1)c1ccc(Cl)s1,–,–,–,≤ 20,≤ 20,≤ 20,≤ 20,≤ 20
CN1CCN(c2cc3c(cc2F)c(=O)c(-c2nn4c(-c5cn(C6CC6)c6cc(N7CCNCC7)c(F)cc6c5=O)nnc4s2)cn3C2CC2)CC1,0.12 to 5.2,0.12 to 5.2,0.12 to 5.2,–,–,–,–,–
COc1ccc(/C=N/NC(=O)c2cn(C3CC3)c3cc(N/N=C/c4ccc(OC)cc4)c(F)cc3c2=O)cc1,1.5 to 23.5,1.5 to 23.5,1.5 to 23.5,–,–,–,–,–
COc1cc(/C=N/NC(=O)c2cn(C3CC3)c3cc(N/N=C/c4ccc(O)c(OC)c4)c(F)cc3c2=O)ccc1O,1.5 to 2.8,1.5 to 2.8,1.5 to 2.8,–,–,–,–,–
CCn1cc(C(=O)O)c(=O)c2cc(F)c(N3CCN(C/C(=N/O)c4ccc(Cl)s4)CC3)nc21,–,–,–,≤ 20,≤ 20,≤ 20,≤ 20,≤ 20
COc1cc(/C=N/NC(=O)c2cn(C3CC3)c3cc(N/N=C/c4cc(OC)c(OC)c(OC)c4)c(F)cc3c2=O)cc(OC)c1OC,1.5 to 23.5,1.5 to 23.5,1.5 to 23.5,–,–,–,–,–
